Broadly, the EC50 is the concentration at which the effect is half-maximal. A lower EC50 goes with an effect from little substance. A word on the IC50: it is the concentration that inhibits the measured activity by half. Low values mean greater potency, high ones weaker potency.

Test [1] concerns the target T1, human melanocortin receptor 4 (MC4R) (Homo sapiens, UniProt P32245).
T1 construct: expressed in transfected cells
As to the kind of experiment: Luciferase functional assay. The class given is cell-based. As to conditions: agonistic efficacy against MCR4; functional assay not specified (luciferase or cAMP). On the procedure:
Cell lines expressing human melanocortin receptor 4 (MC4R) were dissociated from tissue culture dishes by rinsing with Ca^++, Mg^++ free DPBS, treated with 1× Trypsin/EDTA solution for 1 min at 37° C., and resuspended with DMEM (GIBCO-BRL) supplemented with 10% FBS. The cells were counted and diluted with DMEM supplemented with 10% FBS and 200 ug/ml of Geneticin to 5×10^5 cells/ml. 90 ul of cell suspension was plated onto each well of 96-well black and clear bottom culture plates (Costar). After the incubation for 24 h in the atmosphere of 6% CO2 at 37° C., 10 ul of NDP- -MSH and test compounds diluted in DMSO were added to each well. The final DMSO concentration was 1%. After 4 h of incubation in the atmosphere of 6% CO2 at 37° C., 50 ul of Bright-Glo (Promega) was added to each well. Luciferase activity was measured by using L-Max luminometer (Molecular Device). The amount of luciferase activity induced by treatment with NDP- -MSH was defined as 100% to obtain the relative efficacy of test compounds. The EC0.5 MSH was defined as the concentration of test compounds that results in half maximal activity of NDP- -MSH. The EC50 was defined as the concentration of test compound that results in half maximal activity of its own.

For test [2], the target named is T1, human melanocortin receptor 4 (MC4R). Kind of test: Membrane fraction binding assay (125I-NDP-MSH competition). As to conditions: binding affinity against MCR4. On the procedure: The membrane fraction binding assay was used to identify competitive inhibitors of ^125I-NDP- -MSH binding to cloned human MCRs expressed in HEK cells.
Cell lines expressing human melanocortin receptor 4 (MC4R) were grown in Φ150 mm culture dishes in DMEM (GIBCO-BRL) supplemented with 10% FBS, 200 ug/ml Geneticin (GIBCO-BRL), and antibiotics (penicillin and streptomycin) (GIBCO-BRL) in an atmosphere of 6% CO2 at 37° C. When the cells were fully grown, the cells were washed once with 10 ml of Ca^++, Mg^++ free DPBS. The cells were incubated with 8 ml of Ca^++, Mg^++ free DPBS for 15-30 min at 37° C. until the cells were easily detached by triturating with pipette. The cells were harvested into 50 ml of conical tubes, and spun at 1500 rpm for 5 min. The supernatant was discarded, and the cells were resuspended in 8 ml of Ca^++, Mg^++ free DPBS, and spun at 1500 rpm for 5 min. The supernatant was discarded, and pellets were resuspended in 3 ml of membrane preparation buffer (50 mM Tris, pH 7.2˜7.4, 4 ug/ml Leupeptin; 10 uM Phosphoramidon; 40 ug/ml Bacitracin; 5 ug/ml Aprotinin; 10 mM Pefabloc). The pellets were homogenized with dounce homogenizer (Bellco with type “B” glass pestle) using 10-12 strokes. The homogenate was centrifuged (Beckman XL-100K Ultracentrifuge, Rotor 45 Ti, 50 ml centrifuge tube) at 40,000 rpm (100,000×g) for 30 min at 4° C. The pellets were resuspended in 20 ml of membrane preparation buffer, and protein was determined by BCA assay kit (PIERCE). Aliquots were placed in tubes and stored at −80° C.
Membrane fraction was diluted with membrane binding buffer to make final 600 ug/ml, and 50 ul of membrane fraction containing 30 ug of membrane protein was added onto each well of 96-well assay plate. 25 ul of test compounds or 20 uM unlabelled NDP- -MSH (to make the final concentration at 5 uM) diluted with membrane binding buffer was added onto each well of 96-well assay plate. […] The top was sealed, and the radioactivity was quantitated in a Packard Topcount Microplate Scintillation Counter. […]

The structures appear in SMILES notation.

T1 sequence (P32245 whole entry): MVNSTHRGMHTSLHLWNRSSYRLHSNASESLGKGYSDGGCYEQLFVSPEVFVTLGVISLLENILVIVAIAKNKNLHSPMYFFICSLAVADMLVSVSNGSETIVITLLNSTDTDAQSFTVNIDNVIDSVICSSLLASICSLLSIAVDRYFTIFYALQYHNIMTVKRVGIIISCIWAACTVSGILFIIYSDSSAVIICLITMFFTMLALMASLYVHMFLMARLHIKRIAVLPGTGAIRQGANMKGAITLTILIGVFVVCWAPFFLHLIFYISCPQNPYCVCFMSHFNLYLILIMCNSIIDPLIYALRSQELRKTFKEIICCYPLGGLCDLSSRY

In the case of `CC(C)C(=O)N(C1CCCCC1)[C@H]1CCN(NC(=O)[C@@H](Cc2ccc(Cl)cc2)NC[C@H]2CCCN2)C1` [Example 3, (2R)-2-{[(2R)-pyrrolidine-2-yl]methyl}amino-N-{(3S)-3-[cyclohexyl(isobutyryl)amino]pyrrolidine-1-yl}-3-(4-chlorophenyl)propionamide 2TFA], the concentration for a half-maximal effect (EC50) in test [1] is 5 to 500 nM. The IC50 in test [2] lay within 100 to 500 nM.

The compound `CC(C)C(=O)N(C1CCCCC1)[C@H]1CCN(C(=O)[C@@H](Cc2ccc(Cl)cc2)NC(=O)[C@H]2CCCN2)C1` [Example 2] gave a concentration giving a half-maximal response (EC50) in test [1] of 5 to 500 nM. For the same compound, in test [2], the half-maximal inhibitory concentration (IC50) was 100 to 500 nM.

Compound `CC(C)C(=O)N(C1CCCCC1)[C@H]1CCN(C(=O)[C@H](N)Cc2ccc(Cl)cc2)C1` [Example 1] gave a half-maximal effective concentration (EC50) in test [1] of 5 to 500 nM. For the same compound, the half-maximal inhibitory concentration (IC50) in test [2] lay in the range of 100 to 500 nM.

Source of the values: patent publication US7989634B2, “Melanocortin receptor agonists” (LG Life Sciences Ltd., priority 2003, dated 2011).
